Experimental data as given in patent US20250115597A1, “TYK2 INHIBITORS AND COMPOSITIONS AND METHODS THEREOF” (LYNK PHARMACEUTICALS CO. LTD., priority 2021, published 2025).

Tests used:
pSTAT1 = assay: Phosphorylation inhibition of STAT in human PBMC, IFN-alpha stimulated (flow cytometry); type: cell-based; conditions: 20 min; human PBMC, IFN-alpha 20 mins, CD3 cells; read-out: IC50 on pSTAT1 inhibition in hPBMC
Experimental: Phosphorylation Inhibition of STAT in Human PBMC and Human Whole Blood Testing:
The inhibitory potential of test articles in human PBMC and human whole blood assay was evaluated by the method of flow cytometry.
IFN-alpha will activate JAK1 and TYK2 kinase in T cells by binding to IFN receptors, and then lead to phosphorylation of STAT1 and STAT2. The phosphorylated STAT1 enter nuclear and promote transcription and expression of IFN-gamma. To evaluate the efficacy of TYK2i in T cells, freshly prepared human PBMC or freshly collected human whole blood will be stimulated with certain unit of human IFN-alpha (Universal Type I IFN(1MU), R&D, 11200-2) for 20 mins in incubator. After stimulation, fix cells with Phosflow™ Fix Buffer I (BD, 557870), and then collect fixed cells by centrifugation (500 g, 8 min). Wash cells once with pre-cooled PBS, and then permeabilize cells with cold Perm Buffer III buffer (BD, 558050) for 45 mins on ice. Collect cells by centrifugation (600 g, 8 min) and washed twice with cold PBS. Stain cells with anti-human CD3 (FITC Mouse Anti-Human CD3, BD, 555332) and anti-pSTAT1_Y701(Alexa Fluor 647 Mouse Anti-Stat1 (pY701), BD, 612597) antibodies. Detect pSTAT1 by flow cytometry (CytoFlex S) and analyze data with FlowJo and GraphPad Prism 8 software. IC50 values of test articles were determined using 4-parameter logistic equation.

[1] = Hepatocytes metabolic stability assay; type: in vitro ADME; conditions: cryopreserved hepatocytes, human hepatocytes, 1.0×10^6 cells/mL; for CLint scaled at 1 μM: read-out: Human hepatocyte Clint(liver); for half-life at 1 μM: read-out: Human hepatocyte stability T1/2
Procedure, shortened: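 Cryopreserved hepatocytes (1.0×10^6 cells/mL final) were incubated with test compound at 1 μM at 37 °C and sampled at 0, 15, 30, 60 and 120 min, with acetonitrile quench and LC-MS/MS. k came from log-linear % remaining versus time, giving T1/2 and CLint.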

Compound	IC50 (pSTAT1) [nM]	CLint scaled at 1 μM [1] [mL/min/kg]	half-life at 1 μM [1] [h]
[2H]C([2H])([2H])NC(=O)c1cnc(NC(=O)C2CC2)cc1Nc1ccc2cnn(CC)c2c1OC [Example 44, 6-(Cyclopropanecarboxamido)-4-((1-ethyl-7-methoxy-1H-indazol-6-yl)amino)-N-(methyl-d3)nicotinamide]	14.9	43.1	1.49
[2H]C([2H])([2H])NC(=O)c1cnc(NC(=O)C2CC2)cc1Nc1ncc2cnn(CC)c2c1OC [Example 262, 6-(Cyclopropanecarboxamido)-4-((1-ethyl-7-methoxy-1H-pyrazolo[4,3-c]pyridin-6-yl)amino)-N-(methyl-d3)nicotinamide]	–	18.5	1.59
[2H]C([2H])([2H])NC(=O)c1cnc(NC(=O)C2CC2)cc1Nc1ccn2ncc(C#N)c2c1OC [Example 165, 4-((3-Cyano-4-methoxypyrazolo[1,5-a]pyridin-5-yl)amino)-6-(cyclopropanecarboxamido)-N-(methyl-d3)nicotinamide]	–	< 7.35	> 4
[2H]C([2H])([2H])NC(=O)c1cnc(Nc2ccc(F)cn2)cc1Nc1nn(C)c2ccn(CC)c(=O)c12 [Example 139, 4-((5-Ethyl-1-methyl-4-oxo-4,5-dihydro-1H-pyrazolo[4,3-c]pyridin-3-yl)amino)-6-((5-fluoropyridin-2-yl)amino)-N-(methyl-d3)nicotinamide]	23.3	< 7.35	> 4
